This is an account of results in PMC2757673, “Protein Misfolding as an Underlying Molecular Defect in Mucopolysaccharidosis III Type C” (PLoS ONE, 2009).

Molecules are shown by their SMILES. Counter-ions that a name gives are not always drawn.

For experiment [1], the target named is T1, HGSNAT (heparan sulfate acetyl-CoA: α-glucosaminide N-acetyltransferase), HGSNAT-TAP (Homo sapiens, UniProt Q68CP4).
T1 construct: transient expression in COS-7 cells; homogenate or streptavidin-resin partially purified; ~77 kDa
T1 sequence (Q68CP4 1-663): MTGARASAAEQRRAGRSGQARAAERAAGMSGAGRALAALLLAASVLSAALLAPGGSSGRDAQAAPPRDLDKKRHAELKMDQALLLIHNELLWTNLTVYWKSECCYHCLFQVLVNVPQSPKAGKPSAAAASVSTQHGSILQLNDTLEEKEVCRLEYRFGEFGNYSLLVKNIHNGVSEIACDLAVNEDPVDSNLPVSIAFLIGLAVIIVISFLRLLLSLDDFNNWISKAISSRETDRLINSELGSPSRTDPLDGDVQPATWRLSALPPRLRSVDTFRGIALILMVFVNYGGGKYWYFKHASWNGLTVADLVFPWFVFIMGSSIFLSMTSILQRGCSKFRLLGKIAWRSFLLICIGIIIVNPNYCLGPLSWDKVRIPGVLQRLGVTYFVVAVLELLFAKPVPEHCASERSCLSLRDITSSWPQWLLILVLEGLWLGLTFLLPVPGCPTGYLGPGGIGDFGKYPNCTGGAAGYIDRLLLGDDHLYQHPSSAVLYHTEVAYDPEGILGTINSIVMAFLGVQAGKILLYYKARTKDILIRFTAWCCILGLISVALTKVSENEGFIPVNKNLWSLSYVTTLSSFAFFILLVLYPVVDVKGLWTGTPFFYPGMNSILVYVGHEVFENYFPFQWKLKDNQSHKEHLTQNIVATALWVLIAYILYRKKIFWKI
The experiment is described as follows: fluorogenic N-acetyltransferase assay, Lineweaver-Burk plot, partially purified (streptavidin resin) enzyme. In kind it is biochemical. The note with it: acetyl-CoA co-substrate, 4MU-βGlcN 0.05-2.0 mM, McIlvain buffer pH 5.7, 37°C, 18 h.

For experiment [2], the target named is T1, HGSNAT (heparan sulfate acetyl-CoA: α-glucosaminide N-acetyltransferase), HGSNAT-TAP. The experiment can be described thus: fluorogenic N-acetyltransferase assay, Dixon plot, homogenate of transfected COS-7 cells. The note with it: competitive; 4MU-βGlcN 0.0375-1.5 mM, 2 mM acetyl-CoA, McIlvain buffer pH 5.7, 37°C, 3 h. The format is biochemical.

Consider `Cc1cc(=O)oc2cc(O[C@@H]3O[C@H](CO)[C@@H](O)[C@H](O)[C@H]3N)ccc12` [4MU-βGlcN, 4-methylumbelliferyl β-D-glucosaminide], for which the KM result in experiment [1] is “Lineweaver-Burk plot of substrate dependance for partially purified HGSNAT wild-type and P237Q and V481L mutants”.

For `N[C@H]1C(O)O[C@H](CO)[C@@H](O)[C@@H]1O` (stereo partly drawn) [D-(+)-glucosamine hydrochloride], in experiment [2], the affinity, expressed as Ki, was 280 µM.
